A short description of data set [1]: Enthalpy of solution, 2225 Thermometrics Solution calorimeter. It is filed as physicochemical.
Data set [2] can be described thus: Suspension-conversion experiments. Type of data set: physicochemical. The following applies: suspension of crystals. From the text:
Suitable suspension media are solvents in which the active compound is soluble, where the active compound is employed in a weight ratio in relation to the respective solvent in the suspension in which the solubility limit of the active compound in the solvent is exceeded, so that the active compound is predominantly in the form of a solid in the suspension. Suitable suspension media are, for example, water, methanol and/or tetrahydrofuran (THE), where water is particularly preferred.

Consider `CC(=O)NCCCS(=O)(=O)O` [form II, calcium 3-acetylaminopropane-1-sulfonate], for which, in data set [1] (concluded from enthalpies of solution), the “thermodynamic stability (free Gibbs enthalpy) relative to the other crystal form” value is recorded as “thermodynamically more stable than form I”. Also, in data set [1] (in water at 25° C.), the “difference in enthalpy of solution between form II and form I” value stood at 6.9 ± 0.4 J/g; the enthalpy of solution is 16.2 ± 0.2 J/g.
Regarding `CC(=O)NCCCS(=O)(=O)O` [form I, calcium 3-acetylaminopropane-1-sulfonate], the “conversion of crystal form in suspension” value in data set [2] is given as “rearrangement to crystal form II”. Further, the enthalpy of solution in data set [1] (in water at 25° C.) was -23.1 ± 0.2 J/g.

Source of the values: patent US8383679B2, “Crystal form of calcium 3-acetylaminopropane-1-sulfonate” (Merck Patent Gesellschaft mit beschränkter Haftung, priority 2008, dated 2013).
